# Measurements taken from patent US10851403B2, “Cyclin-dependent kinase substrate” (SYSMEX CORPORATION, priority 2017, dated 2020).
# No end group written: not given here. *: point of attachment. Biotin = O=C1N[C@H]2[C@H](CS[C@H]2CCCCC(=O)*)N1; Ahx = NCCCCCC(=O)O
# Legend:
# Format in all cases: biochemical
# CDK4 and CDK6 = experiment: CDK reactivity test 2 (Test Example 2), CDK4/6 reactivity; conditions: [(V2/V1)+(V4/V3)]/2; relative value when Comparative Polypeptide 2 is set as 1
# Experimental: (§1) In a tube, 15 μL of a CDK solution (composition: 10 μg/mL CDK/cyclin complex, 1% BSA, triethanolamine buffer solution (pH 7.5)) containing CDK1/cyclin A2, CDK2/cyclin E1, CDK4/cyclin D3 or CDK6/cyclin D3 (all manufactured by SignalChem) and 15 μL of a kinase reaction solution (composition: 4 μg/mL substrate peptide, 50 mM HEPES-NaOH buffer solution (pH 7.4), 15 mM MgCl2, 2 mM ATP-γS) containing Polypeptide 1, Comparative Polypeptide 1 or Comparative Polypeptide 2 as a substrate peptide were mixed, and the tube was incubated at 37° C. for 1 hour with stirring at 900 rpm using a constant temperature shaker. 21.4 μL of a fluorescent labeling reagent (composition: 180 μg/ml 5-(iodoacetamide)-FITC, 50 mM EDTA, 300 mM MOPS-NaOH, pH 7.4) was added to the tube and pipetted 5 times, then the tube was shielded from light and incubated at 37° C. for 10 minutes with stirring at 400 rpm using a constant temperature shaker. 100 μL of a fluorescent labeling reaction stop solution (composition: 30 mM N-acetyl-L-cysteine, 2 M MOPS-NaOH, pH 7.4) was added to the tube and pipetted 5 times. 30 μL (containing 0.15 μg of magnetic St-Ab beads) of a HISCL HBsAg R2 reagent (manufactured by Sysmex Corporation) was added to the tube, then the tube was shielded from light and incubated at 37° C. for about 10 minutes with stirring at 1600 rpm using a constant temperature shaker. The beads in the tube were precipitated using a magnet, and the supernatant was removed. Then, TBS-T was added, and the beads were washed at 37° C. for about 10 seconds with stirring at 1600 rpm. This washing step was performed three times in total. 100 μL of an ALP-labeled anti-FITC antibody solution (composition: 0.2 to 1 μg/mL ALP-labeled anti-FITC antibody (manufactured by Jackson ImmunoResearch Laboratories, Inc.), 100 mM MES, 150 mM NaCl, 1% BSA, pH 6.5) was added to the tube, then the tube was shielded from light and incubated at 37° C. for about 10 minutes with stirring at 1600 rpm using a constant temperature shaker. The beads in the tube were precipitated using a magnet, and the supernatant was removed. Then, TBS-T was added, and the beads were washed at 37° C. for about 10 seconds with stirring at 1600 rpm. This washing step was performed three times in total. 50 μL of a buffer solution containing Tris (manufactured by Sysmex Corporation, HISCL R4 reagent) was added to the tube and stirred at 2000 rpm at 37° C. for 10 seconds using a constant temperature shaker. 100 μL of a buffer solution (manufactured by Sysmex Corporation, HISCL R5 reagent) containing an ALP luminescent substrate (disodium 2-chloro-5-(4-methoxyspiro{1,2-dioxetane-3,2′-(5′-chloro)-tricyclo[3.3.1.1^3,7]decan}-4-yl)-1-phenyl phosphate) was added to the tube, then the tube was shielded from light and incubated at 37° C. for 4 minutes with stirring at 1600 rpm using a constant temperature shaker. The beads in the tube were precipitated using a magnet, and the supernatant was transferred to a black plate. Luminescence was detected with a luminometer, and the luminescence intensity was measured.
# Test Example 2 was carried out in the same manner as in Test Example 1 except that CDK4 or CDK6 was used as CDK and the polypeptides (Polypeptides 2 to 13) obtained in Production Example 2 or Comparative Polypeptide 2 was used as a substrate peptide. V1 to V4 below:
# V 1: luminescence intensity when using Comparative Polypeptide 2 and CDK4,
# V 2: luminescence intensity when using any of Polypeptides 2 to 17 and A to E, and CDK4,
# V 3: luminescence intensity when using Comparative Polypeptide 2 and CDK6, and
# V 4: luminescence intensity when using any of Polypeptides 2 to 17 and A to E, and CDK6
# were measured, and CDK4/6 reactivity was calculated based on the formula ([(V2/V1)+(V4/V3)]/2). CDK4/6 reactivity is a relative value when the CDK4/6 reactivity of Comparative Polypeptide 2 is set as 1. […]
# CDK4/cyclin D3 = target: T1, CDK4/cyclin D3 (Homo sapiens, UniProt P11802); experiment: CDK reactivity test 1 (Test Example 1); conditions: 10 μg/mL CDK/cyclin complex, 4 μg/mL substrate peptide, ATP-γS, 37° C. 1 hour
# T1 construct: purchased SignalChem
# Experimental: (§2) The reactivity of the polypeptide obtained in Production Example 1 to CDK1, CDK2, CDK4 and CDK6 was examined. Specifically, it was performed as follows.
# as §1
# CDK6/cyclin D3 = target: T2, CDK6/cyclin D3 (Homo sapiens, UniProt Q00534); experiment: CDK reactivity test 1 (Test Example 1); conditions: 10 μg/mL CDK/cyclin complex, 4 μg/mL substrate peptide, ATP-γS, 37° C. 1 hour
# T2 construct: purchased SignalChem
# Experimental: as §2, §1
# CDK2/cyclin E1 = target: T3, CDK2/cyclin E1 (Homo sapiens, UniProt P24941); experiment: CDK reactivity test 1 (Test Example 1); conditions: 10 μg/mL CDK/cyclin complex, 4 μg/mL substrate peptide, ATP-γS, 37° C. 1 hour
# T3 construct: purchased SignalChem
# Experimental: as §2, §1
# CDK1/cyclin A2 = target: T4, CDK1/cyclin A2 (Homo sapiens, UniProt P06493); experiment: CDK reactivity test 1 (Test Example 1); conditions: 10 μg/mL CDK/cyclin complex, 4 μg/mL substrate peptide, ATP-γS, 37° C. 1 hour
# T4 construct: purchased SignalChem
# Experimental: as §2, §1
# T2 sequence (Q00534 whole entry): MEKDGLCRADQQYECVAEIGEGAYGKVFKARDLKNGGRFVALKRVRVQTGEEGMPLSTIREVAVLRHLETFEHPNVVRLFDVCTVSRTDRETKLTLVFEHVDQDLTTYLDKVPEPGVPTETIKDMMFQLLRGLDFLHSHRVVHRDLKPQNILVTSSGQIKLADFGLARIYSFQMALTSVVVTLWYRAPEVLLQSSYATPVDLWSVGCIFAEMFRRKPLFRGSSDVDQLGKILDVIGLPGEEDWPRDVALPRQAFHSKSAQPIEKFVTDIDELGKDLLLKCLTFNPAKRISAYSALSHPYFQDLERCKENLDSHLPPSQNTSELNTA
# T2 sequence (P30281 whole entry partner): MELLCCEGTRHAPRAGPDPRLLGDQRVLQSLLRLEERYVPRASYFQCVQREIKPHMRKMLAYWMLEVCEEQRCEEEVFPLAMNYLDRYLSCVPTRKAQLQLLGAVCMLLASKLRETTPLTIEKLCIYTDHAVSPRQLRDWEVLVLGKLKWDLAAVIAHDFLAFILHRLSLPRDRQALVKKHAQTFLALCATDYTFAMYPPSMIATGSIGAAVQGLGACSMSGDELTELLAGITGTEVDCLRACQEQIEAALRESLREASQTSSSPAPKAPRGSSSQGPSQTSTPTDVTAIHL
# T1 sequence (P11802 whole entry): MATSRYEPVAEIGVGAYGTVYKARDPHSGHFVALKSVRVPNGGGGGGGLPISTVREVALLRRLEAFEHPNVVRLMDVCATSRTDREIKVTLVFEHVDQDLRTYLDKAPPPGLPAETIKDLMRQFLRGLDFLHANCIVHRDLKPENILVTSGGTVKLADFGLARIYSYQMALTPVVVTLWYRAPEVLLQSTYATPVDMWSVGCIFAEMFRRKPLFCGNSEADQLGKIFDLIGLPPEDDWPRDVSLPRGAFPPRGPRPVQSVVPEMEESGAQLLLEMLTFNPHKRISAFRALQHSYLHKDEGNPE
# T1 sequence (P30281 whole entry partner): as the sequence (P30281 whole entry partner) above
# T4 sequence (P06493 whole entry): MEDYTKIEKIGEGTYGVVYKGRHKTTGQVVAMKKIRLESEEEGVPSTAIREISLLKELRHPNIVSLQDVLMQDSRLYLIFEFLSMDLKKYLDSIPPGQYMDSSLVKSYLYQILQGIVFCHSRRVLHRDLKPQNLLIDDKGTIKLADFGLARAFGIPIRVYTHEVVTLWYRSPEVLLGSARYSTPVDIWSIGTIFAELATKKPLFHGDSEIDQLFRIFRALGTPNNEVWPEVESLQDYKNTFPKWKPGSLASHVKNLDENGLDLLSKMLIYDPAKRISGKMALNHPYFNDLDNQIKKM
# T4 sequence (P20248 whole entry partner): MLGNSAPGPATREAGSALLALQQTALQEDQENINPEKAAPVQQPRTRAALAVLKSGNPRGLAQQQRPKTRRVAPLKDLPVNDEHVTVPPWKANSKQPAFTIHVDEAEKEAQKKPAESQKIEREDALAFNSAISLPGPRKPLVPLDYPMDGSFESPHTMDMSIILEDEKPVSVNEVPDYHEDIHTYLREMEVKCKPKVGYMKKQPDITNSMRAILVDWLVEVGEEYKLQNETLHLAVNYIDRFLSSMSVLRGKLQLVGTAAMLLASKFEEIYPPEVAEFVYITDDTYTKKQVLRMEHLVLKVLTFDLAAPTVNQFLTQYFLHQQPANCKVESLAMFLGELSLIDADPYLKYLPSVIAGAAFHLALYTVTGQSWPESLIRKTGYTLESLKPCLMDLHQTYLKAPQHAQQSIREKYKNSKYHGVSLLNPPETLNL
Sequence,CDK4/6 Reactivity (CDK4 and CDK6),further results
"GMYWSPNPWWRGGGG ({Biotin-Ahx}-GMYWSPNPWWRGGGG) [Polypeptide E, mutant of Polypeptide 1, N-terminal biotin via aminohexane linker]",6,–
"GMPASPNPWWRGGGG ({Biotin-Ahx}-GMPASPNPWWRGGGG) [Polypeptide 5, mutant of Polypeptide 1, N-terminal biotin via aminohexane linker]",1,–
"RRRFRPASPLRGPPK ({Biotin-Ahx}-RRRFRPASPLRGPPK) [Comparative Polypeptide 2, polypeptide known as a substrate of CDK4 and CDK6; N-terminal biotin via aminohexane linker]",–,"Luminescence intensity (CDK4/cyclin D3): 5,439,800; Luminescence intensity (CDK6/cyclin D3): 17,316,904; Luminescence intensity (CDK2/cyclin E1): 16,211,368; Luminescence intensity (CDK1/cyclin A2): 41,516,306"
"GMPWSANPWWRGGGG ({Biotin-Ahx}-GMPWSANPWWRGGGG) [Polypeptide 6, mutant of Polypeptide 1, N-terminal biotin via aminohexane linker]",1,–
"GMPWSWNPWWRGGGG ({Biotin-Ahx}-GMPWSWNPWWRGGGG) [Polypeptide 15, mutant of Polypeptide 1, N-terminal biotin via aminohexane linker]",2,–
"GMPWSPNPWWRGGGG ({Biotin-Ahx}-GMPWSPNPWWRGGGG) [Polypeptide 1, N-terminal residue biotin-modified via a linker (aminohexane)]",13,"Luminescence intensity (CDK4/cyclin D3): 101,127,359; Luminescence intensity (CDK6/cyclin D3): 122,281,045; Luminescence intensity (CDK2/cyclin E1): 99,167,362; Luminescence intensity (CDK1/cyclin A2): 93,190,919"
"GMPWSPNPWARGGGG ({Biotin-Ahx}-GMPWSPNPWARGGGG) [Polypeptide 10, mutant of Polypeptide 1, N-terminal biotin via aminohexane linker]",15,–
"AMPWSPNPWWRGGGG ({Biotin-Ahx}-AMPWSPNPWWRGGGG) [Polypeptide 2, mutant of Polypeptide 1, N-terminal biotin via aminohexane linker]",15,–
"GMPWSPNPWWAGGGG ({Biotin-Ahx}-GMPWSPNPWWAGGGG) [Polypeptide 11, mutant of Polypeptide 1, N-terminal biotin via aminohexane linker]",3,–
"GMPWSPAPWWRGGGG ({Biotin-Ahx}-GMPWSPAPWWRGGGG) [Polypeptide 7, mutant of Polypeptide 1, N-terminal biotin via aminohexane linker]",8,–
"GMPWSPNPWWHGGGG ({Biotin-Ahx}-GMPWSPNPWWHGGGG) [Polypeptide A, mutant of Polypeptide 1, N-terminal biotin via aminohexane linker]",7,–
"PYKISEGLPTPTKMTPRSRI ({Biotin-Ahx}-PYKISEGLPTPTKMTPRSRI) [Comparative Polypeptide 1, partial peptide of Rb protein which is an in vivo substrate of CDK; N-terminal biotin via aminohexane linker]",–,"Luminescence intensity (CDK4/cyclin D3): 810,674; Luminescence intensity (CDK6/cyclin D3): 7,417,238; Luminescence intensity (CDK2/cyclin E1): 104,410,578; Luminescence intensity (CDK1/cyclin A2): 67,564,327"
"GMPWSPNPWWKGGGG ({Biotin-Ahx}-GMPWSPNPWWKGGGG) [Polypeptide B, mutant of Polypeptide 1, N-terminal biotin via aminohexane linker]",5,–
"GMPYSPNPWWRGGGG ({Biotin-Ahx}-GMPYSPNPWWRGGGG) [Polypeptide 14, mutant of Polypeptide 1, N-terminal biotin via aminohexane linker]",5,–
"GMPWSPNAWWRGGGG ({Biotin-Ahx}-GMPWSPNAWWRGGGG) [Polypeptide 8, mutant of Polypeptide 1, N-terminal biotin via aminohexane linker]",7,–
"GMPFSPNPWWRGGGG ({Biotin-Ahx}-GMPFSPNPWWRGGGG) [Polypeptide 13, mutant of Polypeptide 1, N-terminal biotin via aminohexane linker]",5,–
"GMAWSPNPWWRGGGG ({Biotin-Ahx}-GMAWSPNPWWRGGGG) [Polypeptide 4, mutant of Polypeptide 1, N-terminal biotin via aminohexane linker]",5,–
"GMPWSYNPWWRGGGG ({Biotin-Ahx}-GMPWSYNPWWRGGGG) [Polypeptide 17, mutant of Polypeptide 1, N-terminal biotin via aminohexane linker]",2,–
"GAPWSPNPWWRGGGG ({Biotin-Ahx}-GAPWSPNPWWRGGGG) [Polypeptide 3, mutant of Polypeptide 1, N-terminal biotin via aminohexane linker]",33,–
"GMPWSFNPWWRGGGG ({Biotin-Ahx}-GMPWSFNPWWRGGGG) [Polypeptide 16, mutant of Polypeptide 1, N-terminal biotin via aminohexane linker]",2,–
"GMPWSPNPAWRGGGG ({Biotin-Ahx}-GMPWSPNPAWRGGGG) [Polypeptide 9, mutant of Polypeptide 1, N-terminal biotin via aminohexane linker]",7,–
"AMPWSPAPAARAGGG ({Biotin-Ahx}-AMPWSPAPAARAGGG) [Polypeptide F, mutant of Polypeptide 1, N-terminal biotin via aminohexane linker]",7,–
"GMWWSPNPWWRGGGG ({Biotin-Ahx}-GMWWSPNPWWRGGGG) [Polypeptide C, mutant of Polypeptide 1, N-terminal biotin via aminohexane linker]",5,–
"GMPWSPNPWWRAGGG ({Biotin-Ahx}-GMPWSPNPWWRAGGG) [Polypeptide 12, mutant of Polypeptide 1, N-terminal biotin via aminohexane linker]",6,–
"GMFWSPNPWWRGGGG ({Biotin-Ahx}-GMFWSPNPWWRGGGG) [Polypeptide D, mutant of Polypeptide 1, N-terminal biotin via aminohexane linker]",5,–
